Reference: PubChem BioAssay (NCI)
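Assay format: 96-well plates, 48-hour exposure. GI50: concentration for 50% inhibition of growth. Definition used: TGI = concentration required for complete inhibition of growth.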

Tests used:
Assay in all cases: growth of human tumour cells (NCI), 48 h
U251 CNS = test system: U251 CNS
HCT-116 colon = test system: HCT-116 colon
IGROV1 ovarian = test system: IGROV1 ovarian
SW-620 colon = test system: SW-620 colon
SF-539 CNS = test system: SF-539 CNS
OVCAR-8 ovarian = test system: OVCAR-8 ovarian
NCI-H460 lung = test system: NCI-H460 lung
SR leukemia = test system: SR leukemia
SN12C renal = test system: SN12C renal
UO-31 renal = test system: UO-31 renal
LOX IMVI melanoma = test system: LOX IMVI melanoma
UACC-62 melanoma = test system: UACC-62 melanoma
NCI-H23 lung = test system: NCI-H23 lung
786-0 renal = test system: 786-0 renal
A549 NSCLC = test system: A549 NSCLC
DU-145 prostate = test system: DU-145 prostate
MDA-MB-435 = test system: MDA-MB-435
SNB-75 CNS = test system: SNB-75 CNS
PC-3 prostate = test system: PC-3 prostate
ACHN renal = test system: ACHN renal
CCRF-CEM leukemia = test system: CCRF-CEM leukemia
RXF 393 renal = test system: RXF 393 renal
SK-MEL-2 melanoma = test system: SK-MEL-2 melanoma
MOLT-4 leukemia = test system: MOLT-4 leukemia
SNB-19 CNS = test system: SNB-19 CNS
MDA-MB-231 breast = test system: MDA-MB-231 breast
HOP-62 NSCLC = test system: HOP-62 NSCLC
SK-OV-3 ovarian = test system: SK-OV-3 ovarian
OVCAR-4 ovarian = test system: OVCAR-4 ovarian
K-562 leukemia = test system: K-562 leukemia
UACC-257 melanoma = test system: UACC-257 melanoma
COLO 205 colon = test system: COLO 205 colon
M14 melanoma = test system: M14 melanoma
HCC-2998 colon = test system: HCC-2998 colon
T-47D breast = test system: T-47D breast
SF-268 CNS = test system: SF-268 CNS
SK-MEL-28 melanoma = test system: SK-MEL-28 melanoma
MCF7 breast = test system: MCF7 breast
TK-10 renal = test system: TK-10 renal
KM12 colon = test system: KM12 colon
SK-MEL-5 melanoma = test system: SK-MEL-5 melanoma
CAKI-1 renal = test system: CAKI-1 renal
MALME-3M melanoma = test system: MALME-3M melanoma
HT29 colon = test system: HT29 colon
OVCAR-3 ovarian = test system: OVCAR-3 ovarian
NCI-H226 lung = test system: NCI-H226 lung
NCI/ADR-RES ovarian = test system: NCI/ADR-RES ovarian
HS 578T breast = test system: HS 578T breast
OVCAR-5 ovarian = test system: OVCAR-5 ovarian
BT-549 breast = test system: BT-549 breast
HCT-15 colon = test system: HCT-15 colon
EKVX NSCLC = test system: EKVX NSCLC
NCI-H522 lung = test system: NCI-H522 lung
SF-295 CNS = test system: SF-295 CNS
HOP-92 NSCLC = test system: HOP-92 NSCLC
HL-60(TB) leukemia = test system: HL-60(TB) leukemia

With COc1cc(/C=C2\Oc3cc(OCCCN4CCCC4)ccc3C2=O)cc(OC)c1 the GI50 (U251 CNS) was 2.38 µM, the TGI (U251 CNS) was 7.71 µM and the GI50 (HCT-116 colon) was 2.78 µM. For the same compound, the TGI (HCT-116 colon) was 8.34 µM, the GI50 (IGROV1 ovarian) was 4.4 µM and the TGI (IGROV1 ovarian) was 16.9 µM. It also gave a GI50 (SW-620 colon) of 3.15 µM, a TGI (SW-620 colon) of 12.4 µM and a GI50 (SF-539 CNS) of 1.66 µM. It also gave a TGI (SF-539 CNS) of 3.12 µM, a GI50 (OVCAR-8 ovarian) of 3.71 µM and a TGI (OVCAR-8 ovarian) of 15.4 µM. It also gave a GI50 (NCI-H460 lung) of 3.43 µM, a TGI (NCI-H460 lung) of 12.3 µM and a GI50 (SR leukemia) of 1.82 µM. The TGI (SR leukemia) was 5.04 µM, the GI50 (SN12C renal) was 10.3 µM and the TGI (SN12C renal) was 22 µM. It also gave a GI50 (UO-31 renal) of 4.76 µM, a TGI (UO-31 renal) of 18 µM and a GI50 (LOX IMVI melanoma) of 1.6 µM. For the same compound, the TGI (LOX IMVI melanoma) was 3.05 µM, the GI50 (UACC-62 melanoma) was 2.78 µM and the TGI (UACC-62 melanoma) was 11.7 µM. It also gave a GI50 (NCI-H23 lung) of 4.75 µM, a TGI (NCI-H23 lung) of 18.7 µM and a GI50 (786-0 renal) of 3.86 µM. It also gave a TGI (786-0 renal) of 14.5 µM, a GI50 (A549 NSCLC) of 3.44 µM and a TGI (A549 NSCLC) of 14.8 µM. It also gave a GI50 (DU-145 prostate) of 3.68 µM, a TGI (DU-145 prostate) of 12.8 µM and a GI50 (MDA-MB-435) of 10.5 µM. It also gave a TGI (MDA-MB-435) of 22.4 µM, a GI50 (SNB-75 CNS) of 11 µM and a TGI (SNB-75 CNS) of 22.9 µM. It also gave a GI50 (PC-3 prostate) of 4.52 µM, a TGI (PC-3 prostate) of 18.1 µM and a GI50 (ACHN renal) of 3.13 µM. For the same compound, the TGI (ACHN renal) was 10.7 µM, the GI50 (CCRF-CEM leukemia) was 2.76 µM and the TGI (CCRF-CEM leukemia) was 10.4 µM. The GI50 (RXF 393 renal) was 3.02 µM, the TGI (RXF 393 renal) was 12.3 µM and the GI50 (SK-MEL-2 melanoma) was 14.7 µM. It also gave a TGI (SK-MEL-2 melanoma) of 30.2 µM, a GI50 (MOLT-4 leukemia) of 2.59 µM and a TGI (MOLT-4 leukemia) of 9.19 µM. It also gave a GI50 (SNB-19 CNS) of 3.31 µM, a TGI (SNB-19 CNS) of 13.4 µM and a GI50 (MDA-MB-231 breast) of 3.28 µM. It also gave a TGI (MDA-MB-231 breast) of 11.1 µM, a GI50 (HOP-62 NSCLC) of 3.68 µM and a TGI (HOP-62 NSCLC) of 15.3 µM. The GI50 (SK-OV-3 ovarian) was 12.9 µM, the TGI (SK-OV-3 ovarian) was 26.1 µM and the GI50 (OVCAR-4 ovarian) was 7.16 µM. For the same compound, the TGI (OVCAR-4 ovarian) was 19.8 µM, the GI50 (K-562 leukemia) was 2.3 µM and the TGI (K-562 leukemia) was 7.69 µM. For the same compound, the GI50 (UACC-257 melanoma) was 4.54 µM, the TGI (UACC-257 melanoma) was 17 µM and the GI50 (COLO 205 colon) was 2.58 µM. For the same compound, the TGI (COLO 205 colon) was 8.3 µM, the GI50 (M14 melanoma) was 1.83 µM and the TGI (M14 melanoma) was 3.75 µM. It also gave a GI50 (HCC-2998 colon) of 3.91 µM, a TGI (HCC-2998 colon) of 15 µM and a GI50 (T-47D breast) of 1.93 µM. For the same compound, the TGI (T-47D breast) was 4.51 µM, the GI50 (SF-268 CNS) was 6.1 µM and the TGI (SF-268 CNS) was 23.9 µM. It also gave a GI50 (SK-MEL-28 melanoma) of 4.12 µM, a TGI (SK-MEL-28 melanoma) of 16 µM and a GI50 (MCF7 breast) of 2.94 µM. The TGI (MCF7 breast) was 13.4 µM, the GI50 (TK-10 renal) was 11.4 µM and the TGI (TK-10 renal) was 25.4 µM. The GI50 (KM12 colon) was 4.82 µM, the TGI (KM12 colon) was 17.7 µM and the GI50 (SK-MEL-5 melanoma) was 2 µM. The TGI (SK-MEL-5 melanoma) was 4.6 µM, the GI50 (CAKI-1 renal) was 3.54 µM and the TGI (CAKI-1 renal) was 16.4 µM. For the same compound, the GI50 (MALME-3M melanoma) was 1.77 µM, the TGI (MALME-3M melanoma) was 4.26 µM and the GI50 (HT29 colon) was 2.8 µM. It also gave a TGI (HT29 colon) of 8.69 µM, a GI50 (OVCAR-3 ovarian) of 2.74 µM and a TGI (OVCAR-3 ovarian) of 8.17 µM. It also gave a GI50 (NCI-H226 lung) of 13.8 µM, a TGI (NCI-H226 lung) of 27 µM and a GI50 (NCI/ADR-RES ovarian) of 6.17 µM. It also gave a TGI (NCI/ADR-RES ovarian) of 21.6 µM, a GI50 (HS 578T breast) of 5.15 µM and a TGI (HS 578T breast) of 25.6 µM. The GI50 (OVCAR-5 ovarian) was 12.5 µM, the TGI (OVCAR-5 ovarian) was 25.4 µM and the GI50 (BT-549 breast) was 8.76 µM. For the same compound, the TGI (BT-549 breast) was 21.7 µM, the GI50 (HCT-15 colon) was 2.84 µM and the TGI (HCT-15 colon) was 12.3 µM. The GI50 (EKVX NSCLC) was 9.6 µM, the TGI (EKVX NSCLC) was 21.9 µM and the GI50 (NCI-H522 lung) was 14.2 µM. For the same compound, the TGI (NCI-H522 lung) was 32.7 µM, the GI50 (SF-295 CNS) was 2.88 µM and the TGI (SF-295 CNS) was 10.6 µM. The GI50 (HOP-92 NSCLC) was 3.2 µM, the TGI (HOP-92 NSCLC) was 16.8 µM and the GI50 (HL-60(TB) leukemia) was 2.6 µM. The TGI (HL-60(TB) leukemia) was 6.66 µM.
